Data as given in patent US11746115B2, “Solid forms of 7-[[(1S)-1-[4-[(1S)-2-cyclopropyl-1-(4-prop-2-enoylpiperazin-1-yl)ethyl]phenyl]ethyl]amino]-1-ethyl-4H-pyrimido[4,5-d][1,3]oxazin-2-one” (Eli Lilly and Company, priority 2021, dated 2023).

Tests used:
[1] = Preclinical solubility studies of Compound A; assay type: physicochemical; details: certain preclinical studies
[2] = Non-sink dissolution (microcentrifuge assay, pH 2 then FaSSIF pH 6.5); assay type: physicochemical; details: after FaSSIF pH 6.5 transfer
Description: Non-sink dissolution is performed by adding the test composition to a solution of 0.01 N HCl pH 2 (e.g., in a centrifuge tube) and analyzing for 7-[[(1S)-1-[4-[(1S)-2-cyclopropyl-1-(4-prop-2-enoylpiperazin-1-yl)ethyl]phenyl]ethyl]amino]-1-ethyl-4H-pyrimido[4,5-d][1,3]oxazin-2-one solution concentration, by HPLC, at approximately time zero, 20 and 40 minutes. After approximately 40 minutes, a solution of fasted state simulated intestinal fluid (FaSSIF) pH 6.5, with 0.224 wt % bile salts, is added to the pH 2 solution. The 7-[[(1S)-1-[4-[(1S)-2-cyclopropyl-1-(4-prop-2-enoylpiperazin-1-yl)ethyl]phenyl]ethyl]amino]-1-ethyl-4H-pyrimido[4,5-d][1,3]oxazin-2-one concentration is monitored, by HPLC, at approximately 50, 70, 90 and 120 minutes after time zero. At each timepoint the samples are centrifuged at 18,500 g-force for 3 minutes to remove undissolved solids from the sample. For analysis, a supernatant sample (100 μL) is diluted 5× using 1:1 acetonitrile/H2O and analyzed. The non-sink dissolution test is completed at room temperature.

Structure (SMILES)	solubility, acidic versus neutral environment [1]	solution concentration at the 70 minute timepoint at elevated pH as compared to TC1 [2]
C=CC(=O)N1CCN([C@@H](CC2CC2)c2ccc([C@H](C)Nc3ncc4c(n3)N(CC)C(=O)OC4)cc2)CC1 [TC1, 7-[[(1S)-1-[4-[(1S)-2-cyclopropyl-1-(4-prop-2-enoylpiperazin-1-yl)ethyl]phenyl]ethyl]amino]-1-ethyl-4H-pyrimido[4,5-d][1,3]oxazin-2-one]	more soluble in an acidic environment than a neutral one	
C=CC(=O)N1CCN([C@@H](CC2CC2)c2ccc([C@H](C)Nc3ncc4c(n3)N(CC)C(=O)OC4)cc2)CC1 [TC2, 7-[[(1S)-1-[4-[(1S)-2-cyclopropyl-1-(4-prop-2-enoylpiperazin-1-yl)ethyl]phenyl]ethyl]amino]-1-ethyl-4H-pyrimido[4,5-d][1,3]oxazin-2-one, 2,5-dihydroxybenzoic acid (1:2)]		increased solution concentration
